US11634425B2, “Pharmaceutical compounds” (priority 2019, dated 2023)
Where two headings read alike, the source gives them in different places.

How the values were obtained:
in vivo [1] = assay type: in vivo, rat (Sprague Dawley); details: male SD rat; for Vd / clearance / Cmax / half-life / AUC(0-t): Sprague Dawley, in vivo; for Cmax / C 8 h: IV 1 mg/kg / PO 10 mg/kg study; for AUC(0-t): read-out: PO AUClast
Procedure: The pharmacokinetics of compounds were studied in vivo in rats at doses of 1 mg/kg (IV) and 10 mg/kg (PO).
Male rats [Sprague Dawley (SD)] surgically prepared with a jugular vein cannula were treated with experimental compounds via intravenous administration (IV; n=3; 1 mg/kg) or oral administration (PO; n=3; 10 mg/kg). Compounds were formulated as a solution in 40:60 dimethylacetamide:saline (IV administration) and a solution of 10% DMSO, 20% cremaphor in water (70%) (PO administration). […] Serial blood samples were collected via the cannula at 0.02, 0.08, 0.25, 0.5, 1, 2, 4, 6, 8 and 24 h post IV dosing of compound, and at 0.08, 0.25, 0.5, 1, 2, 4, 6, 8 and 24 h post oral dosing of compound, and plasma was prepared by centrifugation and stored immediately at −80° C. Samples were subsequently thawed, prepared for analysis by protein precipitation with acetonitrile, and analysed by tandem LCMS using electrospray ionisation using a matrix-matched calibration curve. PK parameters were calculated from the resulting data.

in vitro [2] = assay type: in vitro ADME; details: microsomes, pH 7.4, 1 μM compound, 0.5 mg/mL protein, read-out: Liver Microsomal Stability t1/2
Outline: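 Pooled liver microsomes (0.5 mg/mL protein) in 0.1 M phosphate pH 7.4 with 1 μM compound and 1 mM NADPH at 37° C., sampled at 0–45 min; minus-NADPH control at 45 min. Acetonitrile quench, LC-MS/MS; t1/2 and CLint from ln peak-area ratio vs time slope.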

in vitro [3] = assay type: in vitro ADME; details: hepatocytes, 3 μM compound, read-out: Liver Hepatocyte Stability t1/2
Procedure: Compounds were subjected to the following assays to investigate liver microsomal stability and hepatocyte stability.
Hepatocyte Incubation: Experimental Procedure
Cryopreserved pooled hepatocytes were purchased from a reputable commercial supplier and stored in liquid nitrogen prior to use. Williams E media supplemented with 2 mM L-glutamine and 25 mM HEPES and test compound (final substrate concentration 3 μM; final DMSO concentration 0.25%) are pre-incubated at 37° C. prior to the addition of a suspension of cryopreserved hepatocytes (final cell density 0.5×10^6 viable cells/mL in Williams E media supplemented with 2 mM L-glutamine and 25 mM HEPES) to initiate the reaction. The final incubation volume is 500 μL. Two control compounds were included with each species, alongside appropriate vehicle control. The reactions are stopped by transferring 50 μL of incubate to 100 μL acetonitrile containing internal standard at the appropriate time points. Samples were removed at 6 time points (0, 5, 15, 30, 45 and 60 min) over the course of a 60 min experiment. The termination plates are centrifuged at 2500 rpm at 4° C. for 30 min to precipitate the protein. Following protein precipitation, the sample supernatants were combined in cassettes of up to 4 compounds and analysed using generic LC-MS/MS conditions. From a plot of ln peak area ratio (compound peak area/internal standard peak area) against time, the gradient of the line is determined. Subsequently, half-life (t1/2) and intrinsic clearance (CLint) were calculated.

in vivo [4] = assay type: in vivo; details: male Beagle dog; for Vd / clearance / Cmax / half-life / AUC(0-t): in vivo; for Cmax / C 8 h: IV 0.5 mg/kg / PO 3 or 4 mg/kg study; for AUC(0-t): read-out: PO AUClast
Procedure: The pharmacokinetics of compounds were studied in vivo in dogs at doses of 0.5 mg/kg (IV) and 4 mg/kg (PO).
Male Beagle dogs were treated with experimental compounds via intravenous administration (n=2; 0.5 mg/kg) or oral administration (n=2; 3 or 4 mg/kg). Compounds were formulated as a solution in 20% dimethylacetamide/80% (2-hydroxypropyl)-β-cyclodextrin (20% w/v) (IV administration) or a solution in 10% dimethylacetamide/90% (2-hydroxypropyl)-β-cyclodextrin (20% w/v) (PO administration). […] Serial blood samples were collected from the jugular vein at 0.03, 0.08, 0.25, 0.5, 1, 2, 4, 6, 8 and 24 h post IV dosing of compound, and at 0.08, 0.25, 0.5, 1, 2, 4, 6, 8 and 24 h post oral dosing of compound, and plasma was prepared by centrifugation and stored immediately at −80° C. Samples were subsequently thawed, prepared for analysis by protein precipitation with acetonitrile, and analysed by tandem LCMS using electrospray ionisation using a matrix-matched calibration curve. PK parameters were calculated from the resulting data.

Cell cytotoxicity (CC50) = assay type: cell-based; details: human; mean of at least two experiments
Outline: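 Values are means of ≥2 independent runs, rounded to whole units, from 4-parameter variable-slope curve fits. Toxicity measured in Hep-G2 cells run alongside RSV plaque-reduction assays.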

[5] = IV 1 mg/kg, read-out: IV t1/2 (converted)
[6] = PO 10 mg/kg, read-out: PO t1/2 (converted)
[7] = IV 0.5 mg/kg, read-out: IV t1/2 (converted)
[8] = PO 3 or 4 mg/kg, read-out: PO t1/2 (converted)

Work on CCc1ccc(-c2nn3cccnc3c2C(=O)N[C@H]2N=C(c3ccccc3)c3cccc(F)c3NC2=O)cn1 [Example 55] yielded a Vd (in vivo [1]; IV 1 mg/kg) of 1.2 L/kg, a clearance (in vivo [1]; IV 1 mg/kg) of 14.3 mL/min/kg and a Cmax (in vivo [1]) of 1420 ng/mL. The half-life (in vivo [1]; [5]) was 2 h, the AUC(0-t) (in vivo [1]; PO 10 mg/kg) was 14700 ng·h/mL and the half-life (in vivo [1]; [6]) was 2.5 h. The “C 8 h” value (in vivo [1]) was 753 ng/mL, the F (in vivo [1]; IV 1 mg/kg, PO 10 mg/kg) was 113% and the half-life at 1 μM (in vitro [2]; dog) was 1.87 h. It also gave a half-life at 1 μM (in vitro [2]; human) of 2.93 h, a half-life at 1 μM (in vitro [2]; rat) of 1.01 h and a half-life at 3 μM (in vitro [3]; dog) of 2.43 h. The half-life at 3 μM (in vitro [3]; human) was over 3.1 h, the half-life at 3 μM (in vitro [3]; rat) was 1.43 h and the Vd (in vivo [4]; IV 0.5 mg/kg) was 0.47 L/kg. The clearance (in vivo [4]; IV 0.5 mg/kg) was 1.5 mL/min/kg, the Cmax (in vivo [4]) was 3210 ng/mL and the half-life (in vivo [4]; [7]) was 5.4 h. The AUC(0-t) (in vivo [4]; PO 3 or 4 mg/kg) was 20900 ng·h/mL, the half-life (in vivo [4]; [8]) was 6.1 h and the “C 8 h” value (in vivo [4]) was 720 ng/mL. For the same compound, the F (in vivo [4]; IV 0.5 mg/kg, PO 3 or 4 mg/kg) was 65% and the CC50 (Cell cytotoxicity (CC50)) was over 25 µM.

Cc1ccc(-c2nn3cccnc3c2C(=O)N[C@H]2N=C(c3ccccc3)c3cccc(F)c3NC2=O)cn1 [Example 50, N-[(3S)-9-fluoro-2-oxo-5-phenyl-1,3-dihydro-1,4-benzodiazepin-3-yl]-2-(6-methylpyridin-3-yl)pyrazolo[1,5-a]pyrimidine-3-carboxamide] gave a Vd (in vivo [1]; IV 1 mg/kg) of 0.94 L/kg, a clearance (in vivo [1]; IV 1 mg/kg) of 13 mL/min/kg and a Cmax (in vivo [1]) of 2040 ng/mL. For the same compound, the half-life (in vivo [1]; [5]) was 1.2 h, the AUC(0-t) (in vivo [1]; PO 10 mg/kg) was 20000 ng·h/mL and the half-life (in vivo [1]; [6]) was 2.4 h. The “C 8 h” value (in vivo [1]) was 1003 ng/mL, the F (in vivo [1]; IV 1 mg/kg, PO 10 mg/kg) was 152% and the half-life at 1 μM (in vitro [2]; dog) was 13.3 h. For the same compound, the half-life at 1 μM (in vitro [2]; human) was 13.4 h, the half-life at 1 μM (in vitro [2]; rat) was 3.88 h and the half-life at 3 μM (in vitro [3]; dog) was over 3.1 h. For the same compound, the half-life at 3 μM (in vitro [3]; human) was over 3.1 h, the half-life at 3 μM (in vitro [3]; rat) was 96.7 h and the Vd (in vivo [4]; IV 0.5 mg/kg) was 1.3 L/kg. For the same compound, the clearance (in vivo [4]; IV 0.5 mg/kg) was 1.7 mL/min/kg, the Cmax (in vivo [4]) was 1200 ng/mL and the half-life (in vivo [4]; [7]) was 12.2 h. For the same compound, the AUC(0-t) (in vivo [4]; PO 3 or 4 mg/kg) was 13300 ng·h/mL, the half-life (in vivo [4]; [8]) was 16.1 h and the “C 8 h” value (in vivo [4]) was 549 ng/mL. It also gave an F (in vivo [4]; IV 0.5 mg/kg, PO 3 or 4 mg/kg) of 65% and a CC50 (Cell cytotoxicity (CC50)) of over 25 µM.

Compound O=C(N[C@H]1N=C(c2ccccc2)c2ccccc2NC1=O)c1c(-c2ccccc2F)nn2cccnc12 [Example 2, 2-(2-Fluorophenyl)-N-[(3S)-2-oxo-5-phenyl-1,3-dihydro-1,4-benzodiazepin-3-yl]pyrazolo[1,5-a]pyrimidine-3-carboxamide] has a Vd (in vivo [1]; IV 1 mg/kg) of 1.3 L/kg, a clearance (in vivo [1]; IV 1 mg/kg) of 5 mL/min/kg and a Cmax (in vivo [1]) of 2410 ng/mL. For the same compound, the half-life (in vivo [1]; [5]) was 3.1 h, the AUC(0-t) (in vivo [1]; PO 10 mg/kg) was 34200 ng·h/mL and the “C 8 h” value (in vivo [1]) was 2290 ng/mL. The F (in vivo [1]; IV 1 mg/kg, PO 10 mg/kg) was 103%, the half-life at 1 μM (in vitro [2]; dog) was 7.38 h and the half-life at 1 μM (in vitro [2]; human) was 3.08 h. The half-life at 1 μM (in vitro [2]; rat) was over 2.33 h, the half-life at 3 μM (in vitro [3]; dog) was 1.12 h and the half-life at 3 μM (in vitro [3]; human) was 145 h. It also gave a half-life at 3 μM (in vitro [3]; rat) of 3.95 h, a Vd (in vivo [4]; IV 0.5 mg/kg) of 0.92 L/kg and a clearance (in vivo [4]; IV 0.5 mg/kg) of 1.3 mL/min/kg. For the same compound, the Cmax (in vivo [4]) was 1920 ng/mL, the half-life (in vivo [4]; [7]) was 9.8 h and the AUC(0-t) (in vivo [4]; PO 3 or 4 mg/kg) was 22300 ng·h/mL. For the same compound, the half-life (in vivo [4]; [8]) was 11.1 h, the “C 8 h” value (in vivo [4]) was 968 ng/mL and the F (in vivo [4]; IV 0.5 mg/kg, PO 3 or 4 mg/kg) was 55%. The CC50 (Cell cytotoxicity (CC50)) was over 25 µM.
